From paper PMC10959927, “Platinum iodido drugs show potential anti-tumor activity, affecting cancer cell metabolism and inducing ROS and senescence in gastrointestinal cancer cells” (Communications Biology, 2024) come the findings set out here.

Structures are written as SMILES. Where “and” joins values, the source holds several entries; their conditions need not be identical. Identical values can stand only once.

What all share (format): cell-based, human
Assay [1] relates to AGS cells. Nature of the assay: SA-β-Gal histochemical staining. The conditions noted are these: Fig. S4A. As to the method:
SA-β-Gal activity was measured following two different approaches. (i) AGS, MKN45 and PANC1 cells (5 × 10^4) were seeded in 24-multiwell dishes and incubated overnight. […] For flow cytometry cell senescence detection, cells were tripsinized, fixed for 15 min with PFA 4% and stained with the CellEvent Senescense Green Flow Cytometry Assay Kit (C10840, Invitrogen) according to manufacturer’s instructions. CellEvent Senescense Green Probe was used at a 1:500 dilution and fluorescence was detected using the filter (Ex488nm/Em530/30) BL1 with a 4-laser Attune NxT Acoustic Cytometer (Thermo Fisher Scientific). […] After 3 h, the treatments were removed, new supplemented medium was added, and cells were incubated for an additional 24 h. Finally, SA-β-Gal staining was performed using the Senescence Cells Histochemical Staining Kit (CS0030-1KT) according to the manufacturer’s instructions.

The subject of assay [2] is PANC1 cells. Nature of the assay: ROS detection by confocal microscopy (DHE, MitoSox). The conditions noted are these: PANC1, 1 h treatment; H2O2 200 µM, CDDP 10 µM, I5 20 µM, I6 20 µM. Here is the method:
Tumor cells were seeded at a density of 3 × 10^5 cells in 15 µm 8-well IBIDI plates and incubated overnight. […] Subsequently, cells were stained with 10 μM of dihydroethidium (DHE, cytosolic O2^·- probe, Sigma-Aldrich) or with 5 μM of Mitosox (mitochondrial O2^·- probe, Sigma-Aldrich) for 15–30 min[79] and then visualized on a confocal microscope (Confocal LSM 710 Zeiss, Biomedical Research Institute Alberto Sols, IIBm-CSIC-UAM, Madrid, Spain). The image analysis was realized using the software program Image J.

The subject of assay [3] is AGS cells. Nature of the assay: Ratio GSH/GSSG, colorimetric kit. Particulars: AGS, C+ (positive control), relative to Control = 1. As to the method: (§1) GSH and GSSG levels were determined in AGS and PANC1 cells after 3 and 24 h of treatment with the compounds (using H2O2 as a positive control) with the Glutathione Colorimetric Detection Kit (ThermoFisher) following the manufacturer’s instructions. Thirty minutes after adding the Colorimetric Detection Reagent and the Reaction Mixture, the absorbance was read at 405 nm. A standard curve was generated with each assay to interpolate the sample results. To measure GSSG, standards and samples must be diluted with the Sample Diluent containing 2-vinylpyridine.

The subject of assay [4] is PANC1 cells. Nature of the assay: Ratio GSH/GSSG, colorimetric kit. Particulars: PANC1, C+ (positive control), relative to Control = 1. Here is the method:
as §1

Regarding `OO` [H2O2, reference compound], the “Fold change % Senescence” value in assay [1] was 52.81% and 54.43% and 58.54%. In addition, the “DHE fluorescence intensity (per cell), cytosolic O2•−” value in assay [2] is 174.023 and 151.84 and 151.685 and 148.486 and 115.72 and 133.113. The GSH/GSSG in assay [3] was 0.8614 and 0.8667 and 0.9484; in assay [4], 0.5945 and 0.659 and 0.8185.
